Data taken from ChEMBL document CHEMBL3085759, “Structure-activity relationship (SAR) and preliminary mode of action studies of 3-substituted benzylthioquinolinium iodide as anti-opportunistic infection agents” (Eur J Med Chem, 2013).
Active and inactive are the calls of the source. The calls are words filed in the database; no cut-off is given here.

Assays:
Cryptococcus neoformans = test: Antimicrobial activity against Cryptococcus neoformans ATCC 90113 by Alamar blue method; type: functional, organism-based
Staphylococcus aureus [1] = test: Antimicrobial activity against methicillin-resistant Staphylococcus aureus ATCC 33591 by Alamar blue method; type: functional, organism-based
[2] = tested on: Mycobacterium intracellulare; test: Antimicrobial activity against Mycobacterium intracellulare ATCC 23068 by Alamar blue method; type: functional, organism-based
Staphylococcus aureus [3] = test: Antimicrobial activity against Staphylococcus aureus ATCC 29213 by Alamar blue method; type: functional, organism-based
Pichia kudriavzevii = test: Antimicrobial activity against Candida krusei ATCC 6258 by Alamar blue method; type: functional, organism-based
Nakaseomyces glabratus = test: Antimicrobial activity against Candida glabrata by Alamar blue method; type: functional, organism-based
Candida albicans = test: Antimicrobial activity against Candida albicans ATCC 90028 by Alamar blue method; type: functional, organism-based
[4] = Cytotoxicity against african green monkey Vero cells after 48 hrs by Neutral Red dye assay; type: cell-based; details: chlorocebus sabaeus, read-out: TC50
Aspergillus fumigatus = test: Antimicrobial activity against Aspergillus fumigatus ATCC 204305 by Alamar blue method; type: functional, organism-based
Vero = test: Cytotoxicity against african green monkey Vero cells at 10 ug/ml after 48 hrs by Neutral Red dye assay; type: cell-based; details: chlorocebus sabaeus
[5] = Staphylococcus aureus, ATCC 29213
[6] = Staphylococcus aureus, ATCC 29213, read-out: IC50

Row | Compound | MFC (Cryptococcus neoformans) | MIC (Cryptococcus neoformans) | IC50 (Staphylococcus aureus [1]) | MBC (Staphylococcus aureus [1]) | MIC (Staphylococcus aureus [1]) | IC50 [2] | MBC [2] | MIC [2] | MBC (Staphylococcus aureus [3]; [5]) | MIC (Staphylococcus aureus [3]; [5]) | IC50 (Pichia kudriavzevii) | MFC (Pichia kudriavzevii) | MIC (Pichia kudriavzevii) | IC50 (Nakaseomyces glabratus) | MFC (Nakaseomyces glabratus) | MIC (Nakaseomyces glabratus) | IC50 (Candida albicans) | MIC (Candida albicans) | IC50 (Aspergillus fumigatus) | MIC (Aspergillus fumigatus) | other results
1 | FC(F)(F)c1ccc(CSc2cc3ccccc3[n+](CCCCCC3CCCCC3)c2)cc1.[I-] | 0.31 µg/mL | 0.31 µg/mL | 0.36 µg/mL | 1.3 µg/mL | 0.63 µg/mL | 4.7 µg/mL | 10 µg/mL | 10 µg/mL | 1.3 µg/mL | 0.63 µg/mL | 0.46 µg/mL | 1.3 µg/mL | 1.3 µg/mL | 2.7 µg/mL | 5 µg/mL | 5 µg/mL | 1.4 µg/mL | 2.5 µg/mL | 2.9 µg/mL | 5 µg/mL | IC50 (Staphylococcus aureus [3]; [6]): 0.28 µg/mL; MFC (Candida albicans): 2.5 µg/mL; CC50 at 48 h [4]: 7.9 µg/mL; MFC (Aspergillus fumigatus): 5 µg/mL
2 | Clc1cc(Cl)cc(CSc2cc3ccccc3[n+](CCCCCC3CCCCC3)c2)c1.[I-] | 1.3 µg/mL | 1.3 µg/mL | 1.3 µg/mL | 10 µg/mL | 2.5 µg/mL | 3.1 µg/mL | 5 µg/mL | 5 µg/mL | – | – | 17 µg/mL | > 20 µg/mL | > 20 µg/mL | > 20 µg/mL | > 20 µg/mL | > 20 µg/mL | 2.8 µg/mL | 5 µg/mL | > 20 µg/mL | > 20 µg/mL | IC50 (Cryptococcus neoformans): 0.63 µg/mL; Activity (Vero): Non-toxic; IC50 (Staphylococcus aureus [3]): Not Active; MBC (Staphylococcus aureus [3]): inactive; MIC (Staphylococcus aureus [3]): inactive; MFC (Candida albicans): 5 µg/mL; MFC (Aspergillus fumigatus): > 20 µg/mL
3 | Clc1ccccc1CSc1cc2ccccc2[n+](CCCCCC2CCCCC2)c1.[I-] | 5 µg/mL | 2.5 µg/mL | 0.74 µg/mL | 5 µg/mL | 1.3 µg/mL | 13 µg/mL | 20 µg/mL | 20 µg/mL | 5 µg/mL | 1.3 µg/mL | 0.34 µg/mL | 2.5 µg/mL | 2.5 µg/mL | 6 µg/mL | 10 µg/mL | 10 µg/mL | 5.6 µg/mL | 10 µg/mL | 17 µg/mL | 20 µg/mL | IC50 (Cryptococcus neoformans): 1.5 µg/mL; Activity (Vero): Non-toxic; IC50 (Staphylococcus aureus [3]; [6]): 0.77 µg/mL; MFC (Candida albicans): 20 µg/mL; MFC (Aspergillus fumigatus): 20 µg/mL
4 | Oc1ccc(CSc2cc3ccccc3[n+](CCCCCC3CCCCC3)c2)cc1.[I-] | 10 µg/mL | 10 µg/mL | 0.34 µg/mL | 5 µg/mL | 0.63 µg/mL | 2.2 µg/mL | 5 µg/mL | 2.5 µg/mL | 2.5 µg/mL | 2.5 µg/mL | 0.56 µg/mL | 1.3 µg/mL | 1.3 µg/mL | 7.9 µg/mL | 20 µg/mL | 20 µg/mL | 11 µg/mL | 20 µg/mL | 16 µg/mL | 20 µg/mL | Activity (Vero): Non-toxic; IC50 (Staphylococcus aureus [3]; [6]): 0.26 µg/mL; MFC (Candida albicans): 20 µg/mL; MFC (Aspergillus fumigatus): 20 µg/mL
5 | CC(C)(C)c1ccc(CSc2cc3ccccc3[n+](CCCCCC3CCCCC3)c2)cc1.[I-] | 10 µg/mL | 1.3 µg/mL | 12 µg/mL | > 20 µg/mL | 20 µg/mL | > 20 µg/mL | > 20 µg/mL | > 20 µg/mL | > 20 µg/mL | > 20 µg/mL | 1.2 µg/mL | 20 µg/mL | 20 µg/mL | > 20 µg/mL | > 20 µg/mL | > 20 µg/mL | 20 µg/mL | > 20 µg/mL | > 20 µg/mL | > 20 µg/mL | Activity (Vero): Non-toxic; IC50 (Staphylococcus aureus [3]; [6]): > 20 µg/mL; MFC (Candida albicans): > 20 µg/mL; MFC (Aspergillus fumigatus): > 20 µg/mL
6 | N#Cc1cccc(CSc2cc3ccccc3[n+](CCCCCC3CCCCC3)c2)c1.[I-] | 5 µg/mL | 2.5 µg/mL | 0.72 µg/mL | 5 µg/mL | 1.3 µg/mL | 4.8 µg/mL | 10 µg/mL | 5 µg/mL | 2.5 µg/mL | 1.3 µg/mL | 1.1 µg/mL | 2.5 µg/mL | 2.5 µg/mL | 4.7 µg/mL | 10 µg/mL | 10 µg/mL | 4.3 µg/mL | 10 µg/mL | 8.6 µg/mL | 20 µg/mL | IC50 (Cryptococcus neoformans): 1.1 µg/mL; Activity (Vero): Non-toxic; IC50 (Staphylococcus aureus [3]; [6]): 0.69 µg/mL; MFC (Candida albicans): 20 µg/mL; MFC (Aspergillus fumigatus): 20 µg/mL
7 | N#Cc1ccccc1CSc1cc2ccccc2[n+](CCCCCC2CCCCC2)c1.[I-] | 2.5 µg/mL | 1.3 µg/mL | 0.97 µg/mL | 10 µg/mL | 2.5 µg/mL | 6.8 µg/mL | 10 µg/mL | 10 µg/mL | 5 µg/mL | 1.3 µg/mL | 1.5 µg/mL | 5 µg/mL | 5 µg/mL | > 20 µg/mL | > 20 µg/mL | > 20 µg/mL | 1.6 µg/mL | 5 µg/mL | 11 µg/mL | 20 µg/mL | IC50 (Cryptococcus neoformans): 0.5 µg/mL; Activity (Vero): Non-toxic; IC50 (Staphylococcus aureus [3]; [6]): 0.68 µg/mL; MFC (Candida albicans): 10 µg/mL; MFC (Aspergillus fumigatus): 20 µg/mL
8 | FC(F)(F)c1cccc(CSc2cc3ccccc3[n+](CCCCCC3CCCCC3)c2)c1.[I-] | 0.63 µg/mL | 0.63 µg/mL | 0.56 µg/mL | 2.5 µg/mL | 1.3 µg/mL | 7.2 µg/mL | 10 µg/mL | 10 µg/mL | 2.5 µg/mL | 0.63 µg/mL | 1.4 µg/mL | 2.5 µg/mL | 2.5 µg/mL | 2.8 µg/mL | 5 µg/mL | 5 µg/mL | 1.2 µg/mL | 2.5 µg/mL | 1.9 µg/mL | 2.5 µg/mL | IC50 (Cryptococcus neoformans): 0.28 µg/mL; Activity (Vero): Non-toxic; IC50 (Staphylococcus aureus [3]; [6]): 0.4 µg/mL; MFC (Candida albicans): 2.5 µg/mL; MFC (Aspergillus fumigatus): 2.5 µg/mL
9 | [I-].c1ccc(CSc2cc3ccccc3[n+](CCCCCC3CCCCC3)c2)cc1 | 0.63 µg/mL | 0.31 µg/mL | 0.33 µg/mL | 1.3 µg/mL | 0.63 µg/mL | 4 µg/mL | 20 µg/mL | 5 µg/mL | 10 µg/mL | 0.31 µg/mL | 0.71 µg/mL | 1.3 µg/mL | 1.3 µg/mL | 2.9 µg/mL | 5 µg/mL | 5 µg/mL | 1.6 µg/mL | 5 µg/mL | 5.7 µg/mL | 10 µg/mL | Activity (Vero): Non-toxic; IC50 (Staphylococcus aureus [3]; [6]): 0.23 µg/mL; MFC (Candida albicans): 5 µg/mL; MFC (Aspergillus fumigatus): 20 µg/mL
10 | N#Cc1ccc(CSc2cc3ccccc3[n+](CCCCCC3CCCCC3)c2)cc1.[I-] | 2.5 µg/mL | 2.5 µg/mL | 2.2 µg/mL | 5 µg/mL | 5 µg/mL | > 20 µg/mL | > 20 µg/mL | > 20 µg/mL | 5 µg/mL | 5 µg/mL | 5.7 µg/mL | 10 µg/mL | 10 µg/mL | 11 µg/mL | 20 µg/mL | 20 µg/mL | 2.5 µg/mL | 5 µg/mL | 8.6 µg/mL | 20 µg/mL | IC50 (Cryptococcus neoformans): 0.81 µg/mL; Activity (Vero): Non-toxic; IC50 (Staphylococcus aureus [3]; [6]): 1.8 µg/mL; MFC (Candida albicans): 10 µg/mL; MFC (Aspergillus fumigatus): 20 µg/mL
11 | Brc1ccccc1CSc1cc2ccccc2[n+](CCCCCC2CCCCC2)c1.[I-] | 2.5 µg/mL | 1.3 µg/mL | 0.41 µg/mL | 1.3 µg/mL | 0.63 µg/mL | 3.5 µg/mL | 5 µg/mL | 5 µg/mL | 1.3 µg/mL | 0.63 µg/mL | 0.49 µg/mL | 1.3 µg/mL | 1.3 µg/mL | 3.4 µg/mL | 10 µg/mL | 10 µg/mL | 4 µg/mL | 10 µg/mL | 9.6 µg/mL | 20 µg/mL | Activity (Vero): Non-toxic; IC50 (Staphylococcus aureus [3]; [6]): 0.42 µg/mL; MFC (Candida albicans): 10 µg/mL; MFC (Aspergillus fumigatus): 20 µg/mL
12 | Cc1ccccc1CSc1cc2ccccc2[n+](CCCCCC2CCCCC2)c1.[I-] | – | 0.63 µg/mL | 0.73 µg/mL | 2.5 µg/mL | 1.3 µg/mL | 6.7 µg/mL | 10 µg/mL | 10 µg/mL | 2.5 µg/mL | 0.63 µg/mL | 0.84 µg/mL | 2.5 µg/mL | 2.5 µg/mL | 2.8 µg/mL | 5 µg/mL | 5 µg/mL | 1.4 µg/mL | 2.5 µg/mL | 4.1 µg/mL | 10 µg/mL | IC50 (Cryptococcus neoformans): 0.39 µg/mL; Activity (Vero): Non-toxic; IC50 (Staphylococcus aureus [3]; [6]): 0.4 µg/mL
13 | Fc1cccc(CSc2cc3ccccc3[n+](CCCCCC3CCCCC3)c2)c1.[I-] | 0.63 µg/mL | 0.63 µg/mL | 0.37 µg/mL | 1.3 µg/mL | 0.63 µg/mL | 6.5 µg/mL | 10 µg/mL | 10 µg/mL | 1.3 µg/mL | 0.63 µg/mL | 0.49 µg/mL | 1.3 µg/mL | 1.3 µg/mL | 2.6 µg/mL | 5 µg/mL | 5 µg/mL | 1.8 µg/mL | 5 µg/mL | 5.6 µg/mL | 10 µg/mL | Activity (Vero): Non-toxic; IC50 (Staphylococcus aureus [3]; [6]): 0.44 µg/mL; MFC (Candida albicans): 5 µg/mL; MFC (Aspergillus fumigatus): 20 µg/mL
14 | Fc1ccc(CSc2cc3ccccc3[n+](CCCCCC3CCCCC3)c2)cc1.[I-] | 0.63 µg/mL | 0.63 µg/mL | 0.34 µg/mL | 2.5 µg/mL | 0.63 µg/mL | 6.9 µg/mL | 10 µg/mL | 10 µg/mL | 2.5 µg/mL | 0.63 µg/mL | 0.14 µg/mL | 0.63 µg/mL | 0.63 µg/mL | 1.3 µg/mL | 2.5 µg/mL | 2.5 µg/mL | 1.9 µg/mL | 5 µg/mL | 5.2 µg/mL | 10 µg/mL | Activity (Vero): Non-toxic; IC50 (Staphylococcus aureus [3]; [6]): 0.34 µg/mL; MFC (Candida albicans): 5 µg/mL; MFC (Aspergillus fumigatus): 10 µg/mL
